Results reported in patent publication US20110224204A1, “DI-SUBSTITUTED PHENYL COMPOUNDS” (priority 2008, published 2011).

Biological target: Human PDE10A1 (Homo sapiens, UniProt Q9Y233)
Experiment: hPDE10A1 Enzyme Inhibition
Assay type: biochemical
Conditions: [3H]-cAMP substrate; read-out: hPDE10A1 IC50 Band
Experimental: hPDE10A1 Enzyme Activity: 50 μl samples of serially diluted Human PDE10A1 enzyme were incubated with 50 μl of [^3H]-cAMP for 20 minutes (at 37° C.). Reactions were carried out in Greiner 96 deep well 1 ml master-block. The enzyme was diluted in 20 mM Tris HCl pH7.4 and [^3H]-cAMP was diluted in 10 mM MgCl2, 40 mM Tris.HCl pH 7.4. The reaction was terminated by denaturing the PDE enzyme (at 70° C.) after which [^3H]-5′-AMP was converted to [^3H]-adenosine by adding 25 μl snake venom nucleotidase and incubating for 10 minutes (at 37° C.). Adenosine, being neutral, was separated from charged cAMP or AMP by the addition of 200 μl Dowex resin. Samples were shaken for 20 minutes then centrifuged for 3 minutes at 2,500 r.p.m. 50 μl of supernatant was removed and added to 200 μl of MicroScint-20 in white plates (Greiner 96-well Optiplate) and shaken for 30 minutes before reading on Perkin Elmer TopCount Scintillation Counter.
hPDE10A1 Enzyme Inhibition: To check inhibition profile 11 μl of serially diluted inhibitor was added to 50 μl of [^3H]-cAMP and 50 ul of diluted Human PDE10A1 and assay was carried out as in the enzyme activity assay. Data was analysed using Prism software (GraphPad Inc).

Sequence of Human PDE10A1 (Q9Y233 1-779 isoform Q9Y233-1): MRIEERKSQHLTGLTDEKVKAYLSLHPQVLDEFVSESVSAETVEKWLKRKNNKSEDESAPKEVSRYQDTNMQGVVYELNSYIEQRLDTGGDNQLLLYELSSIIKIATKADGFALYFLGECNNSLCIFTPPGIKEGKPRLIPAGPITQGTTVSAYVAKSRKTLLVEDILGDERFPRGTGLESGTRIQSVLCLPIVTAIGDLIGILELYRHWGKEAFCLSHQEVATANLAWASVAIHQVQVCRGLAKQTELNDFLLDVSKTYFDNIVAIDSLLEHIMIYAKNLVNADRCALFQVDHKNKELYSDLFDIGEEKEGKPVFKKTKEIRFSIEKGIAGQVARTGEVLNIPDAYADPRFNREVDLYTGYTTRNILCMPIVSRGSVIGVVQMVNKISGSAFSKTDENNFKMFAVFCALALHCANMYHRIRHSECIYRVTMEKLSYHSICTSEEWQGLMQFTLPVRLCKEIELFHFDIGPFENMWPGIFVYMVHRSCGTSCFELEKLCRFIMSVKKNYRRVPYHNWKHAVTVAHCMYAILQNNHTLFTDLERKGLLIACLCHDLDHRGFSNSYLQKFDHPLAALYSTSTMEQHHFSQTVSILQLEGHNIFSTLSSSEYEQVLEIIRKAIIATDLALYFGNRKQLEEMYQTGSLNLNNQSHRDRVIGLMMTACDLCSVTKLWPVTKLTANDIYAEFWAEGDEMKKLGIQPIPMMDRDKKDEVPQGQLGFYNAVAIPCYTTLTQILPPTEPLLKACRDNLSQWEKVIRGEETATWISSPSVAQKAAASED

Compound	IC50 [nM]
Clc1ccc(-c2ccccc2-c2ccc(OCc3ccc4ccccc4n3)cc2)cc1 [Example 180]	> 50
COc1cc(-c2ccccc2-c2ccc(OCc3ccc4ccccc4n3)cc2)ccc1C#N [Example 205]	≤ 50
N#Cc1ccc(-c2ccccc2-c2ccc(OCc3ccc4ccccc4n3)cc2)cc1 [Example 255]	≤ 50
COc1ccc(-c2ccccc2-c2ccc(OCc3ccc4ccccc4n3)cc2)cc1C#N [Example 281]	≤ 50
COc1ccc(-c2ccccc2-c2ccc(OCc3ccc4ccccc4n3)cc2)cc1 [Example 330]	> 50
c1ccc(-c2ccc(OCc3ccc4ccccc4n3)cc2)c(-c2ccncc2)c1 [Example 380, 2-((2′-(Pyridin-4-yl)biphenyl-4-yloxy)methyl)quinoline]	≤ 50
Fc1cccc(-c2ccncc2)c1-c1ccc(OCc2ccc3ccccc3n2)cc1 [Example 381, 2-(6′-Fluoro-2′-pyridin-4-yl-biphenyl-4-yloxymethyl)-quinoline]	> 50
Clc1cccc(-c2ccncc2)c1-c1ccc(OCc2ccc3ccccc3n2)cc1 [Example 382, 2-((2′-Chloro-6′-(pyridin-4-yl)biphenyl-4-yloxy)methyl)quinoline]	≤ 50
N#Cc1cccc(-c2ccncc2)c1-c1ccc(OCc2ccc3ccccc3n2)cc1 [Example 383, 6-Pyridin-4-yl-4′-(quinolin-2-ylmethoxy)-biphenyl-2-carbonitrile]	≤ 50
O=[N+]([O-])c1cccc(-c2ccncc2)c1-c1ccc(OCc2ccc3ccccc3n2)cc1 [Example 384, 2-(2′-Nitro-6′-pyridin-4-yl-biphenyl-4-yloxymethyl)-quinoline]	≤ 50
COc1cccc(-c2ccncc2)c1-c1ccc(OCc2ccc3ccccc3n2)cc1 [Example 385, 2-((2′-Methoxy-6′-(pyridin-4-yl)biphenyl-4-yloxy)methyl)quinoline]	≤ 50
Cc1cccc(-c2ccncc2)c1-c1ccc(OCc2ccc3ccccc3n2)cc1 [Example 387, 2-(6′-Methyl-2′-pyridin-4-yl-biphenyl-4-yloxymethyl)-quinoline]	≤ 50
CS(=O)(=O)c1cccc(-c2ccncc2)c1-c1ccc(OCc2ccc3ccccc3n2)cc1 [Example 392, 2-((2′-(methylsulfonyl)-6′-(pyridin-4-yl)biphenyl-4-yloxy)methyl)quinoline]	≤ 50
Fc1ccc(-c2ccncc2)c(-c2ccc(OCc3ccc4ccccc4n3)cc2)c1 [Example 404, 2-((5′-fluoro-2′-(pyridin-4-yl)biphenyl-4-yloxy)methyl)quinoline]	≤ 50
Clc1ccc(-c2ccncc2)c(-c2ccc(OCc3ccc4ccccc4n3)cc2)c1 [Example 405, 2-((5′-Chloro-2′-(pyridin-4-yl)biphenyl-4-yloxy)methyl)quinoline]	≤ 50
N#Cc1ccc(-c2ccncc2)c(-c2ccc(OCc3ccc4ccccc4n3)cc2)c1 [Example 406, 6-(Pyridin-4-yl)-4′-(quinolin-2-ylmethoxy)biphenyl-3-carbonitrile]	≤ 50
Cc1ccc(-c2ccncc2)c(-c2ccc(OCc3ccc4ccccc4n3)cc2)c1 [Example 408, 2-(5′-Methyl-2′-pyridin-4-yl-biphenyl-4-yloxymethyl)-quinoline]	≤ 50
CC(C)c1ccccc1-c1ccc(OCc2ccc3ccccc3n2)cc1 [Example 443, 2-((2′-isopropylbiphenyl-4-yloxy)methyl)quinoline]	> 50
Cc1ccccc1-c1ccc(OCc2ccc3ccccc3n2)cc1 [Example 444, 2-((2′-methylbiphenyl-4-yloxy)methyl)quinoline]	> 50
c1ccc(N2CCOCC2)c(-c2ccc(OCc3ccc4ccccc4n3)cc2)c1 [Example 445, 4-(4′-(quinolin-2-ylmethoxy)biphenyl-2-yl)morpholine]	> 50
N#Cc1cccc(N2CCOCC2)c1-c1ccc(OCc2ccc3ccccc3n2)cc1 [Example 448, 6-morpholino-4′-(quinolin-2-ylmethoxy)biphenyl-2-carbonitrile]	≤ 50
Fc1ccc(N2CCOCC2)c(-c2ccc(OCc3ccc4ccccc4n3)cc2)c1 [Example 469, 4-(5-fluoro-4′-(quinolin-2-ylmethoxy)biphenyl-2-yl)morpholine]	≤ 50
Cc1ccc(COc2ccc(-c3ccccc3-c3ccncc3)cc2)nc1 [Example 501, 5-methyl-2-((2′-(pyridin-4-yl)biphenyl-4-yloxy)methyl)pyridine]	≤ 50
Fc1ccc2nc(COc3ccc(-c4ccccc4-c4ccncc4)cc3)ccc2c1 [Example 560, 6-fluoro-2-((2′-(pyridin-4-yl)biphenyl-4-yloxy)methyl)quinoline]	≤ 50

Compound	IC50 [nM]
c1ccc(-c2ccc(OCc3cn4ccccc4n3)cc2)c(-c2ccncc2)c1 [Example 619, 2-((2′-(pyridin-4-yl)biphenyl-4-yloxy)methyl)imidazo[1,2-a]pyridine]	≤ 50
Fc1ccc(-c2ccncc2)c(N2CCC(OCc3ccc4ccccc4n3)CC2)c1 [Example 1706, 2-((1-(5-fluoro-2-(pyridin-4-yl)phenyl)piperidin-4-yloxy)methyl)quinoline]	> 50
O=Cc1cccc(-c2ccncc2)c1-c1ccc(OCc2ccc3ccccc3n2)cc1 [Example 1854, 6-(Pyridin-4-yl)-4′-(quinolin-2-ylmethoxy)biphenyl-2-carbaldehyde]	≤ 50
N#Cc1cc(-c2ccccc2-c2ccc(OCc3ccc4ccccc4n3)cc2)ccc1Cl [Example 1855]	≤ 50
Fc1ccc(-c2ccc(OCc3ccc4ccccc4n3)cc2)c(-c2ccncc2)c1 [Example 1856, 2-(4′-Fluoro-2′-pyridin-4-yl-biphenyl-4-yloxymethyl)-quinoline]	≤ 50
c1cc(-c2ccncc2)c(-c2ccc(OCc3ccc4ccccc4n3)cc2)c(C2OCCCO2)c1 [Example 1857, 2-((2′-(1,3-Dioxan-2-yl)-6′-(pyridin-4-yl)biphenyl-4-yloxy)methyl)quinoline]	≤ 50
COc1ccc(-c2ccccc2-c2ccc(OCc3ccc4ccccc4n3)cc2)cc1F [Example 1858]	≤ 50
Cc1cc(-c2ccccc2-c2ccc(OCc3ccc4ccccc4n3)cc2)ccn1 [Example 1859, 2-((2′-(2-methylpyridin-4-yl)biphenyl-4-yloxy)methyl)quinoline]	≤ 50
COc1ccc(-c2ccccc2-c2ccc(OCc3ccc4ccccc4n3)cc2)cc1C(F)(F)F [Example 1860]	≤ 50
COc1cc(-c2ccccc2-c2ccc(OCc3ccc4ccccc4n3)cc2)ccc1Cl [Example 1861]	≤ 50
COc1cc(-c2ccncc2)c(-c2ccc(OCc3ccc4ccccc4n3)cc2)cc1OC [Example 1862, 2-((4′,5′-dimethoxy-2′-(pyridin-4-yl)biphenyl-4-yloxy)methyl)quinoline]	> 50
c1ccc(-c2ccccc2-c2ccc(OCc3ccc4ccccc4n3)cc2)cc1 [Example 1863]	> 50
O=C(c1cccc(-c2ccncc2)c1-c1ccc(OCc2ccc3ccccc3n2)cc1)N1CCOCC1 [Example 1864, morpholino(6-(pyridin-4-yl)-4′-(quinolin-2-ylmethoxy)biphenyl-2-yl)methanone]	> 50
N#Cc1ccc(-c2ccccc2-c2ccc(OCc3ccc4ccccc4n3)cc2)cc1Cl [Example 1865]	> 50
CCCc1ccccc1-c1ccc(OCc2ccc3ccccc3n2)cc1 [Example 1866, 2-((2′-propylbiphenyl-4-yloxy)methyl)quinoline]	> 50
Cc1ccc(-c2ccc(OCc3ccc4ccccc4n3)cc2)c(-c2ccncc2)c1 [Example 1867, 2-(4′-Methyl-2′-pyridin-4-yl-biphenyl-4-yloxymethyl)-quinoline]	> 50
c1ccc(N2CCCC2)c(-c2ccc(OCc3ccc4ccccc4n3)cc2)c1 [Example 1868, 2-((2′-(pyrrolidin-1-yl)biphenyl-4-yloxy)methyl)quinoline]	> 50
COc1ccc(-c2ccccc2-c2ccc(OCc3ccc4ccccc4n3)cc2)cc1Cl [Example 1869]	> 50
N#Cc1cccc(-c2ccc(OCc3ccc4ccccc4n3)cc2)c1-c1ccncc1 [Example 1870, 2-Pyridin-4-yl-4′-(quinolin-2-ylmethoxy)-biphenyl-3-carbonitrile]	> 50
c1ccc(-c2ccoc2)c(-c2ccc(OCc3ccc4ccccc4n3)cc2)c1 [Example 1871, 2-((2′-(furan-3-yl)biphenyl-4-yloxy)methyl)quinoline]	> 50
Clc1cccc(-c2ccc(OCc3ccc4ccccc4n3)cc2)c1-c1ccncc1 [Example 1872, 2-((3′-Chloro-2′-(pyridin-4-yl)biphenyl-4-yloxy)methyl)quinoline]	> 50
c1cc(-c2ccncc2)c(-c2ccc(OCc3ccc4ccccc4n3)cc2)c(N2CCOCC2)c1 [Example 1873, 4-(6-(pyridin-4-yl)-4′-(quinolin-2-ylmethoxy)biphenyl-2-yl)morpholine]	> 50
CN(C)Cc1cccc(-c2ccncc2)c1-c1ccc(OCc2ccc3ccccc3n2)cc1 [Example 1874, N,N-dimethyl-1-(6-(pyridin-4-yl)-4′-(quinolin-2-ylmethoxy)biphenyl-2-yl)methanamine]	> 50
CCc1ccccc1-c1ccc(OCc2ccc3ccccc3n2)cc1 [Example 1875, 2-((2′-ethylbiphenyl-4-yloxy)methyl)quinoline]	> 50
